Test results from paper PMC11845477, “Exploring the principles behind antibiotics with limited resistance” (Nature Communications, 2025).

Experiments:
[1] = tested on: E. coli BW25113-ΔacrB; test: AcrAB-TolC efflux deficiency screen, relative MIC; type: cell-based, Escherichia coli; settings: ΔacrB vs wild-type
Procedure: Fig. 6 The impact of AcrAB-TolC activity on antibiotic susceptibility. E. coli strains with AcrAB-TolC depletion (BW25113-ΔacrB) and overexpression (BW25113: pUCacrAB) were treated with various antibiotics, and the level of resistance was determined as minimum inhibitory concentration (MIC) relative to a wild-type strain, presented on a logarithmic scale (log2). Each bar represents the mean resistance level (susceptibility, i.e., level of resistance < 0; and resistance, i.e., level of resistance > 0) to antibiotics induced by acrAB overexpression (blue bars; E. coli with a multicopy plasmid of the acrAB genes (pUCacrAB)) and acrB deletion (red bars; mutant E. coli with acrB gene deletion (ΔacrB)) compared to the wild-type. Data are presented as mean values of 3 biological replicates ± SD. […] Detailed information on antibiotic and bacterial strain abbreviations is provided in Supplementary Data 1. Source data are provided as a Source Data file. For information on mode of action groups, refer to Table 1.
For the efflux deficiency screen, the ΔacrB mutant of E. coli K12 BW25113[86] and its equivalent wild-type control strain with intact gene were utilized. In contrast, BW25113 carrying a multicopy acrAB plasmid (pUCacrAB)[87] and its control strain harboring an empty pUC118 plasmid were used to overexpress the acrAB efflux system. According to established protocols via P1 transduction, the suitable acrB deletion mutant (ΔacrB BW25113) was created, while the pUCacrAB plasmid was kindly provided by Kunihiko Nishino and Akihito Yamaguchi (Osaka University, Osaka, Japan). In a prior study, both strains were employed. Since the copy number of the plasmid carrying the efflux pump is controlled by native promoters, external induction is unnecessary.
Antibiotic susceptibilities of these strains were evaluated using a modified version of the standard broth dilution method. In 96-well microtiter plates containing fresh MHB medium, or supplemented MS medium in case of SCH79797, ten-step serial dilutions of an antibiotic from a stock solution were made (2 wells per antibiotic concentration per strain). The two wells contained only supplemented media without any antibiotics […]. Strains were incubated overnight at 37 °C with continuous agitation. Additionally, plasmid containing strains were grown in the presence of 100 µg/mL ampicillin. The culture was diluted to yield a cell suspension with 5 ×10^5 cells/mL and then inoculated into the wells of the microtiter plate. To determine the medium’s background OD value, the first column of the 96-well plate contained solely MHB without inoculum. Prior to the measurement, the plates were incubated at 37 °C with continuous shaking at 900 rpm with 3 mm throw. OD600 values were determined in a microplate reader after 18 hours of incubation (Biotek Synergy 2). The minimum inhibitory concentration (MIC) was determined as the lowest concentration of antibiotic at which the OD600 values were less than 0.05 after subtracting the background value. The log2 of the relative MIC was computed using the following equation:2 log2relativeMICpUCacrAB=MICpUCacrAB/MICpUC118 3 log2relativeMICΔacrB=MICΔacrB/MICwt

[2] = tested on: E. coli ATCC 25922 (SEN) and E. coli NCTC13846 (MDR); test: Adaptive laboratory evolution (ALE), relative MIC of evolved lines; type: cell-based, Escherichia coli; settings: for Relative MIC (log10): EC-SEN (Escherichia coli ATCC 25922)
Excerpt: Using the same set of bacterial strains, we initiated adaptive laboratory evolution with the aim to maximize the level of antibiotic resistance in the populations achieved during a longer, but fixed time period.
An established protocol for adaptive laboratory evolution[46],[73] was followed to propagate populations with the highest resistance levels. Starting with an antibiotic concentration that caused approximately 50% growth inhibition, ten parallel populations for each antibiotic-ancestor strain combination were grown for 72 hours at 37 °C with continuous shaking (300 RPM). MHB broth medium was used unless stated otherwise. After each incubation, 20 µl of each culture was transferred to four new wells containing fresh medium with increasing antibiotic concentrations (0.5×, 1×, 1.5×, and 2.5× the previous concentration) in a chessboard layout to monitor potential cross-contamination. Growth was monitored by measuring OD600 using a Biotek Synergy 2 microplate reader, and only populations grown in the highest drug concentration with an OD600 > 0.2 were transferred further.
A robotic liquid handling system was used to automatically prepare a 11 to 16-step serial dilution in 384-well microtiter plates (Greiner). A final concentration of 5 × 10^5 bacterial cells per mL were inoculated into each well containing 60 µL MHB medium. Bacterial cultures were incubated at 37 °C with continuous shaking (Infors shaker, 900 rpm with 3 mm throw) for 18 hours (2 replicates from each). Cell growth was monitored by measuring the optical density (OD600 values, using Biotek Synergy microplate reader). MIC was defined as the antibiotic concentration of complete growth inhibition (i.e., OD600 < 0.05). Relative MIC was calculated as follows:1 relativeMIC=MICevolved/MICancestor […]
Supplementary Figure 4. Resistance levels following adaptive laboratory evolution across bacterial strains. The level of resistance was measured as the fold change in relative MIC between evolved and ancestral strains after ~60 days of adaptive laboratory evolution. Data are grouped by bacterial strain (A. baumannii (AB), E. coli (EC), K. pneumoniae (KP), and P. aeruginosa (PA)) and categorized as either multidrug-resistant (MDR) or sensitive (SEN). Each data point represents a laboratory evolved line, and boxplots show the median, first and third quartiles, with whiskers indicating the 5th and 95th percentiles.
Statistical analysis was performed using two-sided Dunn’s post-hoc test with Benjamini-Hochberg correction for multiple comparisons (****/ ***/ **/ * indicates p < 0.0001/ 0.001/ 0.01/ 0.05). For detailed information on antibiotic and bacterial species, see Supplementary Table 1. For mode of action groups, refer to Table 1. Source data are provided as a Source Data file.
(1 picture or pasted object on this page, not shown here)

[3] = EC-SEN (E. coli ATCC 25922), evolved line 1 of the given antibiotic
[4] = EC-SEN (E. coli ATCC 25922), evolved line 3 of the given antibiotic
[5] = EC-SEN (E. coli ATCC 25922), evolved line 7 of the given antibiotic
[6] = EC-SEN (E. coli ATCC 25922), evolved line 9 of the given antibiotic

For CN[C@@H]1[C@@H](O[C@H]2O[C@H](CO)[C@@H](N)[C@H](O)[C@H]2O)OC2C[C@@H](N)[C@@H](O[C@H]3[C@H](O)[C@@H](O)[C@H](N)C[C@@H]3N)OC2[C@@H]1O (stereo partly shown) [Apramycin], the “Relative MIC (log2)” value ([1]; replicate 1) was 1, the “Relative MIC (log2)” value ([1]; replicate 2) was 1 and the “Relative MIC (log2)” value ([1]; replicate 3) was 1.

With Nc1nc(-n2cc(C(=O)O)c(=O)c3cc(F)c(N4CC(O)C4)c(Cl)c32)c(F)cc1F [Delafloxacin] the “Relative MIC” value ([2]; EC-SEN (ATCC 25922), evolved line 1, MIC of evolved line / MIC of ancestor) was 128, the “Relative MIC” value ([2]; EC-SEN (ATCC 25922), evolved line 2, MIC of evolved line / MIC of ancestor) was 1024 and the “Relative MIC” value ([2]; EC-SEN (ATCC 25922), evolved line 3, MIC of evolved line / MIC of ancestor) was 512. The “Relative MIC” value ([2]; EC-SEN (ATCC 25922), evolved line 4, MIC of evolved line / MIC of ancestor) was 512, the “Relative MIC” value ([2]; EC-SEN (ATCC 25922), evolved line 5, MIC of evolved line / MIC of ancestor) was 128 and the “Relative MIC” value ([2]; EC-SEN (ATCC 25922), evolved line 6, MIC of evolved line / MIC of ancestor) was 1024. For the same compound, the “Relative MIC” value ([2]; EC-SEN (ATCC 25922), evolved line 7, MIC of evolved line / MIC of ancestor) was 2048, the “Relative MIC” value ([2]; EC-SEN (ATCC 25922), evolved line 8, MIC of evolved line / MIC of ancestor) was 256 and the “Relative MIC” value ([2]; EC-SEN (ATCC 25922), evolved line 9, MIC of evolved line / MIC of ancestor) was 2048. For the same compound, the “Relative MIC” value ([2]; EC-SEN (ATCC 25922), evolved line 10, MIC of evolved line / MIC of ancestor) was 512, the “Relative MIC (log10)” value ([2]; evolved line 2 adapted to the named antibiotic) was 3.0103 and the “Relative MIC (log10)” value ([2]; evolved line 6 adapted to the named antibiotic) was 3.0103. For the same compound, the “Relative MIC (log10)” value ([2]; evolved line 7 adapted to the named antibiotic) was 3.311, the “Relative MIC (log10)” value ([2]; evolved line 9 adapted to the named antibiotic) was 3.311 and the “Relative MIC (log10)” value ([2]; evolved line 10 adapted to the named antibiotic) was 2.709. The “Relative MIC” value ([2]; Escherichia coli ATCC 25922 (EC-SEN), evolved line 1) was 128, the “Relative MIC” value ([2]; Escherichia coli ATCC 25922 (EC-SEN), evolved line 2) was 1024 and the “Relative MIC” value ([2]; Escherichia coli ATCC 25922 (EC-SEN), evolved line 3) was 512. The “Relative MIC” value ([2]; Escherichia coli ATCC 25922 (EC-SEN), evolved line 4) was 512, the “Relative MIC” value ([2]; Escherichia coli ATCC 25922 (EC-SEN), evolved line 5) was 128 and the “Relative MIC” value ([2]; Escherichia coli ATCC 25922 (EC-SEN), evolved line 6) was 1024. The “Relative MIC” value ([2]; Escherichia coli ATCC 25922 (EC-SEN), evolved line 7) was 2048, the “Relative MIC” value ([2]; Escherichia coli ATCC 25922 (EC-SEN), evolved line 8) was 256 and the “Relative MIC” value ([2]; Escherichia coli ATCC 25922 (EC-SEN), evolved line 9) was 2048. For the same compound, the “Relative MIC” value ([2]; Escherichia coli ATCC 25922 (EC-SEN), evolved line 10) was 512, the “Relative MIC (log2)” value ([1]; replicate 1) was -4 and the “Relative MIC (log2)” value ([1]; replicate 2) was -4. The “Relative MIC (log2)” value ([1]; replicate 3) was -4.

With POL7306 the “Relative MIC” value ([2]; ALE, Escherichia coli ATCC 25922 (EC-SEN), evolved line 1) was 2, the “Relative MIC” value ([2]; ALE, Escherichia coli ATCC 25922 (EC-SEN), evolved line 2) was 8 and the “Relative MIC” value ([2]; ALE, Escherichia coli ATCC 25922 (EC-SEN), evolved line 3) was 4. The “Relative MIC” value ([2]; ALE, Escherichia coli ATCC 25922 (EC-SEN), evolved line 4) was 4, the “Relative MIC” value ([2]; ALE, Escherichia coli ATCC 25922 (EC-SEN), evolved line 5) was 4 and the “Relative MIC” value ([2]; ALE, Escherichia coli ATCC 25922 (EC-SEN), evolved line 6) was 4. For the same compound, the “Relative MIC” value ([2]; ALE, Escherichia coli ATCC 25922 (EC-SEN), evolved line 7) was 4, the “Relative MIC” value ([2]; ALE, Escherichia coli ATCC 25922 (EC-SEN), evolved line 8) was 8 and the “Relative MIC” value ([2]; ALE, Escherichia coli ATCC 25922 (EC-SEN), evolved line 9) was 8. The “Relative MIC” value ([2]; ALE, Escherichia coli ATCC 25922 (EC-SEN), evolved line 10) was 4, the “Relative MIC” value ([2]; ALE, Escherichia coli NCTC 13846 (EC-MDR), evolved line 1) was 2 and the “Relative MIC” value ([2]; ALE, Escherichia coli NCTC 13846 (EC-MDR), evolved line 2) was 1. For the same compound, the “Relative MIC” value ([2]; ALE, Escherichia coli NCTC 13846 (EC-MDR), evolved line 3) was 1, the “Relative MIC” value ([2]; ALE, Escherichia coli NCTC 13846 (EC-MDR), evolved line 4) was 1 and the “Relative MIC” value ([2]; ALE, Escherichia coli NCTC 13846 (EC-MDR), evolved line 5) was 1. For the same compound, the “Relative MIC” value ([2]; ALE, Escherichia coli NCTC 13846 (EC-MDR), evolved line 6) was 2, the “Relative MIC” value ([2]; ALE, Escherichia coli NCTC 13846 (EC-MDR), evolved line 7) was 2 and the “Relative MIC” value ([2]; ALE, Escherichia coli NCTC 13846 (EC-MDR), evolved line 8) was 4. The “Relative MIC” value ([2]; ALE, Escherichia coli NCTC 13846 (EC-MDR), evolved line 9) was 1 and the “Relative MIC” value ([2]; ALE, Escherichia coli NCTC 13846 (EC-MDR), evolved line 10) was 1.

Tridecaptin M152-P3 gave an MIC of evolved line [2, 3] of 32 µg/mL, an MIC of evolved line ([2]; EC-SEN (E. coli ATCC 25922), evolved line 2 of the given antibiotic) of 64 µg/mL and an MIC of evolved line [2, 4] of 32 µg/mL. The MIC of evolved line ([2]; EC-SEN (E. coli ATCC 25922), evolved line 4 of the given antibiotic) was 32 µg/mL, the MIC of evolved line ([2]; EC-SEN (E. coli ATCC 25922), evolved line 6 of the given antibiotic) was 32 µg/mL and the MIC of evolved line [2, 5] was 32 µg/mL. The MIC of evolved line ([2]; EC-SEN (E. coli ATCC 25922), evolved line 8 of the given antibiotic) was 32 µg/mL, the MIC of evolved line [2, 6] was 32 µg/mL and the MIC of evolved line ([2]; EC-SEN (E. coli ATCC 25922), evolved line 10 of the given antibiotic) was 64 µg/mL.

Compound polymyxin-B has an MIC of evolved line ([2]; EC-MDR NCTC 13846, evolved line 3) of 64 µg/mL, an MIC of evolved line ([2]; EC-MDR NCTC 13846, evolved line 5) of 64 µg/mL and an MIC of evolved line ([2]; EC-MDR NCTC 13846, evolved line 6) of 64 µg/mL. The MIC of evolved line ([2]; EC-MDR NCTC 13846, evolved line 8) was 32 µg/mL, the MIC of evolved line ([2]; EC-MDR NCTC 13846, evolved line 9) was 64 µg/mL and the MIC of evolved line ([2]; EC-MDR NCTC 13846, evolved line 10) was 64 µg/mL. It also gave an MIC of evolved line [2, 3] of 64 µg/mL, an MIC of evolved line [2, 4] of 64 µg/mL and an MIC of evolved line [2, 5] of 64 µg/mL. For the same compound, the MIC of evolved line [2, 6] was 64 µg/mL.
